From patent EP4556004A1 (priority 2023, dated 2025)

tested on: HCoV-229E; assay: microbe, parasite or virus in culture; type: cell-based, Human coronavirus 229E; settings: not given

Row | Compound | IC50 [µM]
1 | CC(C)=CCc1c(O)cc(O)c(C(=O)C(C)C)c1O [AH56-F3, 2-methyl-1-(2,4,6-trihydroxy-3-(3-methylbut-2-en-1-yl)phenyl)propan-1-one] | > 24
2 | CC(C)=CCc1c(O)cc(O)c(C(=O)C(C)C)c1O [AH62-F2, 2-methyl-1-(2,4,6-trihydroxy-3-(3-methylbut-2-en-1-yl)phenyl)propan-1-one] | < 3
3 | CC(C)=CCC1=C(O)C(C(=O)C(C)C)=C(O)C(CC=C(C)C)(CC=C(C)C)C1=O [Colupulone, Co-lupulone] | < 3
4 | Ad-lupulone | < 12

same assay, conditions: Human coronavirus 229E, Huh-7

Row | Compound | IC50 [µM]
5 | CC(C)=CCC1=C(O)C(CC=C(C)C)(CC=C(C)C)C(=O)C(C(=O)CC(C)C)=C1O [AH6-F2, 3,5-dihydroxy-4,6,6-tris(3-methylbut-2-en-1-yl)-2-(3-methylbutanoyl)cyclohexa-2,4-dien-1-one] | < 3
6 | CCC(C)C(=O)C1=C(O)C(CC=C(C)C)=C(O)C(CC=C(C)C)(CC=C(C)C)C1=O (stereo not drawn) [AH8-F2, 3,5-dihydroxy-4,6,6-tris(3-methylbut-2-en-1-yl)-2-(2-methylbutanoyl)cyclohexa-2,4-dien-1-one] | < 12
7 | CCCC(=O)C1=C(O)C(CC=C(C)C)=C(O)C(CC=C(C)C)(CC=C(C)C)C1=O [AH10-F2, 2-butyryl-3,5-dihydroxy-4,6,6-tris(3-methylbut-2-en-1-yl)cyclohexa-2,4-dien-1-one] | < 3
8 | CC(=O)C1=C(O)C(CC=C(C)C)=C(O)C(CC=C(C)C)(CC=C(C)C)C1=O [AH16-F2, 2-acetyl-3,5-dihydroxy-4,6,6-tris(3-methylbut-2-en-1-yl)cyclohexa-2,4-dien-1-one] | < 12
9 | CCC(=O)C1=C(O)C(CC=C(C)C)=C(O)C(CC=C(C)C)(CC=C(C)C)C1=O [AH17-F2, 3,5-dihydroxy-4,6,6-tris(3-methylbut-2-en-1-yl)-2-propionylcyclohexa-2,4-dien-1-one] | > 24
10 | CCCCC(=O)C1=C(O)C(CC=C(C)C)=C(O)C(CC=C(C)C)(CC=C(C)C)C1=O [AH18-F4, 3,5-dihydroxy-4,6,6-tris(3-methylbut-2-en-1-yl)-2-pentanoylcyclohexa-2,4-dien-1-one] | < 12
11 | CC(C)=CCC1=C(O)C(CC=C(C)C)(CC=C(C)C)C(=O)C(C(=O)CCC(C)C)=C1O [AH39-F1, 3,5-dihydroxy-4,6,6-tris(3-methylbut-2-en-1-yl)-2-(4-methylpentanoyl)cyclohexa-2,4-dien-1-one] | < 12
12 | CCC(C)CC(=O)C1=C(O)C(CC=C(C)C)=C(O)C(CC=C(C)C)(CC=C(C)C)C1=O (stereo not drawn) [AH40-F1, 3,5-dihydroxy-4,6,6-tris(3-methylbut-2-en-1-yl)-2-(3-methylpentanoyl)cyclohexa-2,4-dien-1-one] | < 12
13 | CC(C)=CCC1=C(O)C(CC=C(C)C)(CC=C(C)C)C(=O)C(C(=O)C=Cc2ccccc2)=C1O [AH41-F1, 2-cinnamoyl-3,5-dihydroxy-4,6,6-tris(3-methylbut-2-en-1-yl)cyclohexa-2,4-dien-1-one] | < 12
14 | CC(C)=CCC1=C(O)C(CC=C(C)C)(CC=C(C)C)C(=O)C(C(=O)/C=C/c2ccc(C(F)(F)F)cc2)=C1O [AH44-F2, (E)-3,5-dihydroxy-4,6,6-tris(3-methylbut-2-en-1-yl)-2-(3-(4-(trifluoromethyl)phenyl)acryloyl)cyclohexa-2,4-dien-1-one] | < 12
15 | CC(C)=CCC1=C(O)C(CC=C(C)C)(CC=C(C)C)C(=O)C(C(=O)c2ccccc2)=C1O [AH47-F3, 2-benzoyl-3,5-dihydroxy-4,6,6-tris(3-methylbut-2-en-1-yl)cyclohexa-2,4-dien-1-one] | < 12
16 | CC(=O)c1c(O)c(CC=C(C)C)c(O)c(CC=C(C)C)c1O [AH52-F1, 1-(2,4,6-trihydroxy-3,5-bis-(3-methylbut-2-en-1-yl)phenyl)ethan-1-one] | > 24
17 | CC(C)=CCC1C(=O)C(C(=O)CC(C)C)=C(O)C=C1O (stereo not drawn) [AH55-F3, 3,5-dihydroxy-6-(3-methylbut-2-en-1-yl)-2-(3-methylbutanoyl)cyclohexa-2,4-dien-1-one] | < 24
18 | CCC(C)C(=O)c1c(O)cc(O)c(CC=C(C)C)c1O (stereo not drawn) [AH57-F3, 2-methyl-1-(2,4,6-trihydroxy-3-(3-methylbut-2-en-1-yl)phenyl)butan-1-one] | < 24
19 | CC(C)=CCC1(CC=C(C)C)C(=O)C(C(=O)C(C)C)=C(O)C(C(=O)C(C)C)=C1O [AH66-F1, 1,1'-(2,4-dihydroxy-5,5-bis(3-methylbut-2-en-1-yl)-6-oxocyclohexa-1,3-diene-1,3-diyl)bis(2-methylpropan-1-one)] | < 12
20 | CC(C)=CCC1=C(O)C(CC=C(C)C)(CC=C(C)C)C(=O)C(C(=O)CCCCCNc2ccc([N+](=O)[O-])c3nonc23)=C1O [AH77-F1, 3,5-dihydroxy-4,6,6-tris(3-methylbut-2-en-1-yl)-2-(6-((7-nitrobenzo[c][1,2,5]oxadiazol-4-yl)amino)hexanoyl)cyclohexa-2,4-dien-1-one] | < 12
21 | CC(C)=CCC1=C(O)[C@](O)(CC=C(C)C)C(=O)C(C(=O)C(C)C)=C1O [Co-humulone, reference compound] | > 24
22 | CC(C)=CCC1=C(O)[C@](O)(CC=C(C)C)C(=O)C(C(=O)CC(C)C)=C1O [Humulone, reference compound] | > 24
23 | CC(C)=CCC1(CC=C(C)C)C(=O)CC(O)=C(C(=O)CC(C)C)C1=O [LB68-F3, 5-hydroxy-2,2-bis(3-methylbut-2-en-1-yl)-4-(3-methylbutanoyl)cyclohex-4-ene-1,3-dione] | < 12
24 | CC(C)=CCC1=C(O)C(CC=C(C)C)(CC=C(C)C)C(=O)C(C(=O)C(C)C)=C1O [LB.70-F2, 3,5-dihydroxy-4,6,6-tris(3-methylbut-2-en-1-yl)-2-(2-methylpropanoyl)cyclo-hexa-2,4-dien-1-one] | < 3
25 | CC(C)=CCC1=C(O)C(C(=O)CC(C)C)=C(O)C(CC=C(C)C)(CC=C(C)C)C1=O [Lupulone] | < 3

tested on: HCoV-229E; assay: not given; type: cell-based, Human coronavirus 229E; settings: not given

Row | Compound | reduction of HCoV-229E infection
26 | CC(C)=CCC1=C(O)C(C(=O)C(C)C)=C(O)C(CC=C(C)C)(CC=C(C)C)C1=O [Colupulone, Co-lupulone] | able to reduce

tested on: SARS-CoV-2; assay: SARS-CoV-2 antiviral assay in human primary epithelial nasal cells (Mucilair); type: cell-based, severe acute respiratory syndrome coronavirus-2; settings: not given

Row | Compound | reduction of SARS-CoV-2 infection
27 | CC(C)=CCC1=C(O)C(C(=O)C(C)C)=C(O)C(CC=C(C)C)(CC=C(C)C)C1=O [Colupulone, Co-lupulone] | able to reduce
